The values below are quoted from earlier work in paper PMC9332635 (Journal of Food and Drug Analysis, 2017).

Each structure is given as a SMILES string.

In data set [1] the test system is HBsAg secretion in HBV-transfected cell-lines.
The conditions of data set [2]: method validation study of isosteviol.

On to `Nc1ccn([C@@H]2CS[C@H](CO)O2)c(=O)n1` [lamivudine], for which, in data set [1], the “IC50 for inhibiting HBsAg secretion” value is 49.13 µg/mL.

Turning to `C[C@@]12CC[C@@H]3[C@@](CC[C@H]4[C@@]3(C)CCC[C@@]4(C)C(=O)O)(CC1=O)C2` [isosteviol], the Long-term stability in data set [2] is listed as 61 days.
